Data set [1] can be described thus: Inhibition of linoleic acid lipid peroxidation (AAPH). To be noted: % inhibition at 100 μM; pH 7.4, 37 °C. In a few lines: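 Sodium linoleate in 0.05 M phosphate buffer pH 7.4 at 37 °C under air, oxidation started with AAPH as radical initiator. Conjugated diene hydroperoxide formation followed as absorbance increase at 234 nm, with DMSO-matched controls.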
The target of data set [2] is T1, pancreatic bovine trypsin (Bos taurus, UniProt P00760).
T1 construct: purchased Sigma Chemical, Co. (St. Louis, MO, USA)
T1 sequence (P00760 24-246): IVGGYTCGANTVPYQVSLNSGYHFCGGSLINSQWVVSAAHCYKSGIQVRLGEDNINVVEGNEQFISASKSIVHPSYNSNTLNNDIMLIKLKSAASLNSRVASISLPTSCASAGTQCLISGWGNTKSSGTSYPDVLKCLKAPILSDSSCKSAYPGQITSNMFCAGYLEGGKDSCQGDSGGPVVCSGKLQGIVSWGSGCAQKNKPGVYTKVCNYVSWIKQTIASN
Put plainly: Inhibition of trypsin induced proteolysis in vitro. Type of data set: biochemical. As to conditions: bovine albumin substrate, pH 7.6, 37 °C; read-out: IC50 μM Trypsin Inh.

The subject of data set [3] is sciatic nerve crush. The experiment in a line: Sciatic Functional Index after sciatic nerve crush. Type of data set: in vivo, Wistar rats. The text has this:
SFI is the current standard for measuring functional recovery following rat sciatic nerve crush. Its calculation involves the measurement of wide-ranging relationships between feet and toes of the hindlimb of recovering animals. SFI values close to −100 indicate severe damage, while SFI values close to 0 indicate normal function. The treated rats improved their walk and the relationship between feet and toes of the crushed hindlimbs starting from day 14 to day 21.
(§1) One day prior to the surgery and the behavioral testing, Wistar rats were handled by the investigators and introduced to the testing environment for a brief period of time. Rats were anesthetized with chloral hydrate 4.5% (1 mL/100 g). […] After the exposure, the nerve was crushed once for 30 s at standardized force. The muscle was reapproximated and the skin incision was closed using 6 to 0 sutures. The examination of the loss of sensory and motor function in the operated limb established the crush completeness. Digits in the operated limb were pinched with a blunt forceps. Absence of foot withdrawal and vocalization was recorded as loss of sensory and motor function. Animals were placed under a heating lamp until they recovered from the anesthesia and they returned to their home cages.
(§2) The tested solutions were freshly prepared on surgery day (day 0).
[…] The day of the surgery is considered as day 0 [36, 37, 38].
In the present study, the plantar surfaces of the hindlimbs of the rats were impregnated with ink and then the animals were allowed to walk on a paper along a corridor, leaving footprints during walking.
A wooden corridor (1 m × 8 cm) with raised sidewalls was used. Two and a half white paper strips (40 × 7.5 cm) were placed along the corridor and were fixed with adhesive tape closely together and at the base and the sidewalls of the corridor. Each rat was trained to walk steadily along the corridor without stops until it made three at least successful efforts of continuous walking. The footprints were allowed to dry and were then converted into digital images using a computer and a high resolution scanner. The image processing was done by using the ImageJ. This is an open-source image analysis software created in 1997 by Rayne Rasband (National Institute of Health), widely used in medical applications, especially neuroscience, for measuring distances and surface and plotting the data. The footprints were analyzed as described by Bain et al. in measurements were included: • (i) print length (PL): distance from the heel to the third toe, • (ii) toe spread (TS) distance from the first to the fifth toe on both sides and • (iii) intermediate toe spread (ITS) the distance between the middle of the second and fourth toe
All measurements were taken both from the experimental (EPL, ETS, EIT) and the normal (NPL, NTS, NIT) side. The formula used to calculate SFI was the following: SFI = −38.3 (EPL − NPL)/NPL + 109.5 (ETS − NTS)/NTS + 13.3 (EIT − NIT)/NIT − 8.8

Data set [4] has as its system esterase. Put plainly: In vitro esterase activity on hybrids. As to conditions: 1 mM, phosphate buffer pH 7.8, 37 °C, 90 min and 24 h. Type of data set: in vitro ADME. How it is done: Representative hybrid molecules are subjected to an esterase activity in vitro. 100 μL of 1 mg/mL 0.001 N hydrochloric acid of esterase solution was added to 1,250 μL of phosphate buffer (0.1 M) pH 7.8 including the tested compounds (150 μL in DMSO, final concentration 1 mM) and incubated at 37 °C for 90 min. The incubated solution was allowed to set at room temperature. Then, the absorption was measured at 256 nm. The measurement was repeated after 24 h of incubation at 37 °C.

The subject of data set [5] is sciatic nerve crush. The experiment in a line: Flat runway test after sciatic nerve crush. Type of data set: in vivo, Wistar rats. Also on record: key: 0: No movement; 1: Mild movement; 2: Walking with mild deficit; 3: Nearly normal. To be noted: crushed animals treated with 2a, day 1 to day 21. The protocol: The locomotor function recovery was examined through the flat runway test, the inclined plane runway test, the grid walking test and the Sciatic Functional Index (SFI) calculation.
as §1, §2
The animals were subjected to a locomotor testing one day before the surgery and on the 1st, 8th, 15th and 22nd day after the sciatic nerve injury. The day of the surgery is considered as day 0 [36, 37, 38].
Rats were trained to walk on a wooden board (1 m × 15 cm) for 120 s. The hindlimb movement was assessed with the scoring mentioned before.

Where [6] appears, read: single i.p. dose 0.01 mmol/mL/kg, 8 h after surgery.

The values that follow come from publication PMC6271731, “Multitarget Molecular Hybrids of Cinnamic Acids” (Molecules, 2014).

By IC50 is commonly meant the point on the concentration scale where inhibition reaches its midpoint.

For the compound `CC(=O)Nc1ccc(OC(=O)/C=C/c2cccc(Oc3ccccc3)c2)cc1` [Compound 2a, (E)-4-Acetamidophenyl 3-(3-phenoxyphenyl)acrylate], in data set [1], the “AAPH % (% inhibition of lipid peroxidation)” value is listed as 90%. Besides, in data set [2], the IC50 came to 10 µM. Also, the “SFI, Day before Crash” value in data set [3] (baseline before surgery and dosing) is given as −10.26. For the same compound, in data set [3] (setting [6]), the “SFI, Day-1” value is listed as −93.3; the “SFI, Day-7” value is on record as −93.3; the “SFI, Day-14” value was −35.45; the “SFI, Day-21” value is −20.06. Also, in data set [4], the “hydrolysis of the ester group by esterase” value is given as “hydrolyzed”. Moreover, the “Flat runway score (movement in hindlimb)” value in data set [5] was determined as 3.
